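48-hour exposure; five concentrations; linearly interpolated endpoints. TGI marks complete inhibition of growth.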

For seven compounds, TGI results are on record in PubChem BioAssay (NCI).

What all share (assay): inhibition of tumour cell growth, NCI panel, 48 h
Assay [1] relates to CAKI-1 renal.
Assay [2] concerns COLO 205 colon.
Assay [3] has as its system DU-145 prostate.
Assay [4] has as its system HCC-2998 colon.
Assay [5] has as its system HS 578T breast.
Assay [6] concerns IGROV1 ovarian.
The subject of assay [7] is M14 melanoma.
Assay [8] concerns MALME-3M melanoma.
For assay [9], the system named is OVCAR-8 ovarian.
Assay [10] relates to SF-539 CNS.
Assay [11] has as its system SK-MEL-28 melanoma.
Assay [12] deals with SK-MEL-5 melanoma.
Assay [13] deals with SK-OV-3 ovarian.
In assay [14] the test system is SR leukemia.
The subject of assay [15] is T-47D breast.
Assay [16] concerns TK-10 renal.
In assay [17] the test system is UACC-257 melanoma.
In assay [18] the test system is UACC-62 melanoma.
The test system of assay [19] is RXF 393 renal.

On to `Clc1sc(Cl)c2c1[C@H](Cl)C[C@@H]2Cl`, for which the TGI in assay [1] turned out to be 44.5 µM; in assay [2] it was 62.2 µM; in assay [3], 96.9 µM; in assay [4], 33.4 µM; in assay [5], 44.1 µM; in assay [6], 38.6 µM. For the same compound, the TGI in assay [7] is 37.4 µM; in assay [8], 59.6 µM; in [9], 34.9 µM; in assay [10] it was 42.4 µM; in assay [11] it was 38.1 µM; in [12], greater than 100 µM. Further, the TGI was greater than 100 µM in assay [13]; greater than 100 µM in assay [14]; 72.9 µM in [15]; 85.1 µM in [16]; 92.9 µM in assay [17]; 43.7 µM in [18].
On to `COCn1cc(C2=C(C)C(=O)C(C)=C(C)C2=O)cn1`, for which the TGI in assay [1], in assay [2], in [3], in assay [4], in [5] and in assay [6] was greater than 100 µM each time. The TGI in [7] was greater than 100 µM; in assay [8] it was greater than 100 µM; in assay [9] it was 36.8 µM; in assay [19] it was greater than 100 µM; in assay [10], greater than 100 µM; in [11], greater than 100 µM. Further, the TGI in assay [12] is greater than 100 µM; in assay [14], 65.9 µM; in assay [15], 56.1 µM; in assay [16], greater than 100 µM; in [17], greater than 100 µM; in assay [18], greater than 100 µM.
`O=Cc1ccc2ccocc1-2`: the TGI in [1], in assay [2], in assay [3], in assay [4], in [5] and in [6] was greater than 100 µM each time. Further, the TGI in assay [7], in assay [9], in assay [19], in [10], in assay [12] and in assay [13] was greater than 100 µM in each case. For the same compound, the TGI in [14], in assay [15], in assay [16], in assay [17] and in assay [18] was greater than 100 µM each time.
In the case of `CN1CCN(c2cc3nc(-c4ccc(Cl)cc4)[nH]c3cc2F)CC1`, the TGI in assay [1] was 73.4 µM; in assay [2] it was 51.1 µM; in [3], 83.3 µM; in assay [4], 16.7 µM; in assay [5] it was 42.6 µM; in [6] it was 36.1 µM. Moreover, the TGI in [7] was 8.4 µM; in [8] it was 23.4 µM; in [9], greater than 100 µM; in [19], 30.9 µM; in assay [11], 30.8 µM; in [12], 35.5 µM. Besides, the TGI in assay [13] is 59.5 µM; in assay [14], greater than 100 µM; in assay [15], 65.7 µM; in assay [16] it was 15.4 µM; in assay [17] it was 26.2 µM; in [18], 18.9 µM.
Regarding `CC1=NN(c2ccc(S(=O)(=O)O)cc2)C2(C1)C(Cl)C(=O)N2c1nc2ccccc2s1` (stereo not given), the TGI in assay [1], in [2], in assay [3], in assay [4], in assay [5] and in assay [6] was greater than 100 µM each time. The TGI in assay [7], in [8], in assay [9], in [19], in assay [11] and in assay [12] was greater than 100 µM in each case. Moreover, the TGI in [13], in [14], in [15], in assay [16], in [17] and in assay [18] was greater than 100 µM in each case.
For `c1ccc2sc(SSSc3nc4ccccc4s3)nc2c1`, the TGI in assay [1], in assay [2], in assay [3], in assay [4], in assay [5] and in assay [6] was greater than 100 µM throughout. Besides, the TGI in assay [7], in assay [8], in [9], in [19], in assay [11] and in [12] was greater than 100 µM in each case. Also, the TGI in assay [13], in assay [14], in assay [15], in [16], in assay [17] and in [18] was greater than 100 µM in each case.
As to `COC(=O)[C@@H]1CN(C(=O)CCc2ccccc2)C(=O)N1`, the TGI in assay [1], in [2], in assay [3], in [4], in [5] and in [6] was greater than 100 µM in each case. Moreover, the TGI in assay [7], in assay [8], in [9], in [19], in [10] and in [11] was greater than 100 µM in each case. Besides, the TGI in [12], in [13], in assay [14], in assay [15], in assay [16] and in assay [17] was greater than 100 µM each time.
